Data on one compound can be found in patent US20040235884A1, “Preventives/remedies for cholinergic neuropathy” (priority 2001, published 2004).

In one experiment the test system is AF64A-treated rats. The experiment in a line: Water maze-learning disorder test in AF64A-treated rats. The note with it: FIG. 7. In kind it is in vivo. From the text: Because the compound of the formula (I), particularly 4-acylamino-5,6,7,8-tetrahydrofuro[2,3-b]quinoline derivative, has the above-mentioned mechanism, the promoting action on the high-affinity choline uptake is considered to be dependent on the density of high-affinity choline transporters on the nerve terminal, and therefore, to show a shift independent of the elimination rate of a drug. To clarify this point, the sustained promoting action on the high-affinity choline uptake was examined by monitoring the changes in efficacy when the aforementioned AF64A-treated rats were subjected to single and consecutive administration(s) of a drug. In the test, Compound A at each concentration or a solvent (vehicle) was administered singly or consecutively to AF64A-treated animals and the animals that underwent a sham operation. After a given time, the animals were slaughtered and hippocampal membrane samples (P2 fraction) were prepared by a conventional method. These membrane samples were incubated in Ringer's solution supplemented with [^3H) choline at 37° C. for 10 min. After the completion of the incubation, the membrane samples were filtrated on a glass fiber filter using a cell harvester and washed three times with a buffer. After thorough drying, a scintillator was added and the radioactivity of the membrane samples was measured on a liquid scintillation counter. […]

Experiment [1] has as its system high-affinity choline uptake of hippocampal membrane samples. The experiment in a line: Sustention of action on high-affinity choline uptake: hippocampal membrane samples prepared after single or consecutive administration to AF64A-treated rats. The note with it: for HACU promotion: FIG. 6. In kind it is in vivo. An excerpt: Because the compound of the formula (I), particularly 4-acylamino-5,6,7,8-tetrahydrofuro[2,3-b]quinoline derivative, has the above-mentioned mechanism, the promoting action on the high-affinity choline uptake is considered to be dependent on the density of high-affinity choline transporters on the nerve terminal, and therefore, to show a shift independent of the elimination rate of a drug. To clarify this point, the sustained promoting action on the high-affinity choline uptake was examined by monitoring the changes in efficacy when the aforementioned AF64A-treated rats were subjected to single and consecutive administration(s) of a drug. In the test, Compound A at each concentration or a solvent (vehicle) was administered singly or consecutively to AF64A-treated animals and the animals that underwent a sham operation. After a given time, the animals were slaughtered and hippocampal membrane samples (P2 fraction) were prepared by a conventional method. These membrane samples were incubated in Ringer's solution supplemented with [^3H) choline at 37° C. for 10 min. After the completion of the incubation, the membrane samples were filtrated on a glass fiber filter using a cell harvester and washed three times with a buffer. After thorough drying, a scintillator was added and the radioactivity of the membrane samples was measured on a liquid scintillation counter. The non-specific uptake was that in the presence of hemicholinium-3 (10 μM) in a sodium ion free Ringer's solution. To establish the close relationship between the efficacy observed here and an improving action on the dementia symptoms, the improving effect on the water maze-learning disorder observed in the AF64A-treated rats was also studied at a given time after drug administration for 8 consecutive days.

In experiment [2] the test system is high-affinity choline uptake of hippocampal synaptosome (membrane sample). The experiment can be described thus: Effect on high-affinity choline uptake, [3H]choline, hippocampal synaptosome (membrane sample, P2 fraction) of AF64A-treated rats, in vitro incubation. In kind it is biochemical, male Wistar rats. The note with it: membrane samples with choline uptake reduced by AF64A treatment; incubation 37° C. 30 min; FIG. 1. As for the experimental part:
The action of the compound of the formula (I), particularly 4-acylamino-5,6,7,8-tetrahydrofuro[2,3-b]quinoline derivative, on the high-affinity choline uptake was examined using [^3H] choline and hippocampal synaptosome (membrane sample). AF64A (3 μmol), which is a neurotoxin specific to the cholinergic nerve, was administered to male Wistar rats into the cerebral ventricles bilaterally. The rats were subjected to an experiment after a recovery period of about 10 days. Hippocampal membrane samples (P2 fraction) were prepared by a conventional method from these animals and the animals that underwent a sham operation. These membrane samples were incubated in Ringer's solution with Compound A at each concentration or a solvent (vehicle) at 37° C. for 30 min. [^3H] Choline was added to the reaction mixture, and the mixture was incubated for 10 min. After the completion of the incubation, the membrane samples were filtrated on a glass fiber filter using a cell harvester and washed three times with a buffer. After thorough drying, a scintillator was added and the radioactivity of the membrane samples was measured on a liquid scintillation counter. Non-specific uptake was done under ice-cooling.

Experiment [3] has as its system high-affinity choline transporter. The experiment can be described thus: [3H]hemicholinium-3 binding to hippocampal membrane samples after pre-incubation with drug; Scatchard-plot. Also noted: species or system rats. As for the experimental part:
The action of the compound of the formula (I), particularly 4-acylamino-5,6,7,8-tetrahydrofuro[2,3-b]quinoline derivative, relative to the density of the high-affinity choline transporter on the nerve terminal was examined using [^3H]hemicholinium-3, which is a specific labeled ligand of a high-affinity choline transporter (SYNAPSE No. 1, pp. 293-303, 1987). The aforementioned AF64A-treated rats were used in this test, too. Hippocampal membrane samples (P2 fraction) were prepared according to a conventional method from the AF64A-treated animals and the sham operation animals. These membrane samples were incubated in Ringer's solution with Compound A at each concentration or a solvent (vehicle) at 37° C. for 30 min. After the completion of the incubation, the drug was removed from the reaction mixture by centrifugation at 4° C. and the membrane samples were washed. The drug-treated membrane samples thus obtained were suspended in a solution containing [^3H] hemicholinium-3, and incubated overnight at 4° C. […] After thorough drying, a scintillator was added and the radioactivity of the membrane samples was measured on a liquid scintillation counter. […] For the analysis of binding mode, Scatchard-plot was used and the maximum binding Bmax and dissociation constant Kd were calculated.

For the compound `Cc1oc2nc3c(c(NC(=O)CN4CCCC4=O)c2c1C)CCCC3` [Compound A, 2-(2-oxopyrrolidin-1-yl)-N-(2,3-dimethyl-5,6,7,8-tetrahydrofuro[2,3-b)quinolin-4-yl)acetamide], the “improving effect on learning disorder (water maze)” value in the experiment on AF64A-treated rats (24 h after the administration for 8 consecutive days) and in the experiment with AF64A-treated rats (48 h after the administration for 8 consecutive days) was “significant improving effect on learning disorder” throughout. Further, the HACU promotion entry is listed as “significant HACU promotion was not observed” in experiment [1] (24 h after administration for 4 consecutive days) and “same level of improving effect as with the administration for 8 consecutive days” in experiment [1] (24 h after administration for 16 consecutive days). Also, the HACU promoting action entry in experiment [1] (administration for 8 consecutive days, 24 h from the final administration, FIG. 5) is listed as “significant HACU promoting action was observed”; in experiment [1] (administration for 8 consecutive days, 48 h later, FIG. 5), “sustained”; in experiment [1] (administration for 8 consecutive days, 72 h, FIG. 5), “disappeared”; in experiment [1] (single administration, 1 h after administration, FIG. 4) it was “significant promotion of HACU”; in experiment [1] (single administration, 3 h after administration, FIG. 4) it was “significant promotion of HACU”; in experiment [1] (single administration, 24 h later, FIG. 4), “attenuated”. Besides, the “choline uptake of hippocampal membrane samples” value in experiment [2] is on record as “significantly improved”. Besides, the “action on maximum binding Bmax of hemicholinium-3 (transporter number on membrane surface)” value in experiment [3] (Scatchard-plot analysis, FIG. 3) is given as “increasing action on the maximum binding Bmax”. Besides, the “binding of [3H]hemicholinium-3 on the hippocampal membrane sample” value in experiment [3] (incubation in advance with drug, 37° C. 30 min, FIG. 2) was “increased dose-dependently”.
